The structures appear in SMILES notation. In brackets after ≈: the same amount, converted by molar mass.

The values that follow come from ChEMBL document CHEMBL6182886, “The Liebeskind-Srogl cross-coupling reaction towards the synthesis of biologically active compounds” (Eur J Med Chem, 2025).

The test system of one assay is P815. The assay is described as follows: Anticancer activity against mouse P815 cells assessed as reduction in cell viability measured for 48 hrs by MTT assay. As to conditions: P815, 48 h. It is filed as functional, cell-based. For orientation: Tetrazolium dyes change colour on reduction, which living cells bring about.
Assay [1] can be described thus: Anticancer activity against human HEP cells assessed as reduction in cell viability measured for 48 hrs by MTT assay. Type of assay: toxicity, cell-based.
The subject of assay [2] is Human immunodeficiency virus 1. The experiment in a line: Antiviral activity against HIV-1 infected in human HOG.R5 cells assessed as reduction in viral growth. It is filed as functional, organism-based. Conditions: Human immunodeficiency virus 1, HOG.R5.
Assay [3] is described as follows: Cytotoxicity against human HOG.R5 cells. Type of assay: functional, cell-based.
Another assay deals with KB. The assay is described as follows: Cytotoxicity against human KB cells. Type of assay: functional, cell-based.
The subject of another assay is L1210. The assay is described as follows: Cytotoxicity against mouse L1210 cells. It is filed as functional, cell-based.
The next assay has as its target Cannabinoid receptor 1 (Rattus norvegicus, UniProt P20272). The assay is described as follows: Binding affinity to rat brain CB1 receptor assessed as inhibition constant. Type of assay: tissue-based.
A further assay has as its target Cannabinoid receptor 2 (Mus musculus, UniProt P47936). The assay is described as follows: Binding affinity to mouse CB2 receptor extracted from HEK293 cell membrane assessed as inhibition constant. Type of assay: cell membranes.

Chain of Cannabinoid receptor 1 (P20272 whole entry): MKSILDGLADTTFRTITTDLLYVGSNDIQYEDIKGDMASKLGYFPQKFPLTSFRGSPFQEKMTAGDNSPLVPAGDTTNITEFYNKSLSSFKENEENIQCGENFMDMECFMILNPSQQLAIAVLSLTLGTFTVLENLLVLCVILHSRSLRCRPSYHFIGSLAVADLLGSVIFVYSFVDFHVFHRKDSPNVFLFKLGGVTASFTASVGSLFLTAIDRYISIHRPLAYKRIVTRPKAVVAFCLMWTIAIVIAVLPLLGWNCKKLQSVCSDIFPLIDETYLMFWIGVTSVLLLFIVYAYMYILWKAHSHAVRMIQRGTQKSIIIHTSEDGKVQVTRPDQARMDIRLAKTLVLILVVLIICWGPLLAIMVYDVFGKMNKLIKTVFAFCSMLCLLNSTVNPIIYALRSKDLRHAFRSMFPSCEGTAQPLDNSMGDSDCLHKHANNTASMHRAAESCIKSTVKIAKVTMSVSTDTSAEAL
Chain of Cannabinoid receptor 2 (P47936 whole entry): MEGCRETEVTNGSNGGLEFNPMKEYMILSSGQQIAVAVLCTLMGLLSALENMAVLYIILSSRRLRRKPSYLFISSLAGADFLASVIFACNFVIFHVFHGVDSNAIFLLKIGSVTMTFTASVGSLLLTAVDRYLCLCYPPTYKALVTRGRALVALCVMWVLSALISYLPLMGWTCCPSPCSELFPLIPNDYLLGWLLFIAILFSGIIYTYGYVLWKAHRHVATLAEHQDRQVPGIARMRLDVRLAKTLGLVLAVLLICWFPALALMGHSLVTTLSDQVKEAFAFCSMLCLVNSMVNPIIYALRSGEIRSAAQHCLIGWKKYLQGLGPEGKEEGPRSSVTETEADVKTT

Turning to `CCCCCCCCCCCCCC[C@@H]1CCCN1C`, the IC50 (usually the point on the concentration scale where inhibition reaches its midpoint) was determined as 10 µg/mL (≈ 35.5 µM) with P815 and 5 µg/mL (≈ 17.8 µM) in assay [1].

`CC(C)=CCC/C(C)=C/[C@H]1C(=O)C(C)=C[C@@H]1O`: the IC50 in assay [2] amounted to 5 µg/mL (≈ 21.3 µM); in assay [3] it was 13.2 µg/mL (≈ 56.3 µM).

As to `C=C1/C=C(\C)[C@@H](C)[C@@H](O)CC(=O)[C@@H](C)CC(=O)C[C@H]2CC[C@@H](O2)[C@@H](/C=C/C=C(C)C)OC(=O)C[C@@H]2O[C@H](C[C@H]2C)[C@H](O)[C@@H]1O`, the IC50 turned out to be 3.2 µg/mL (≈ 5.19 µM) in the assay on KB and 1.5 µg/mL (≈ 2.43 µM) in the assay on L1210.

On to `CCCCCCC1(c2cc(O)c3c(c2)OC(C)(C)[C@@H]2CC[C@@H](O)C[C@@H]32)CN(C)C1`, for which the Ki (commonly the dissociation constant of the complex between target and ligand, obtained from inhibition or displacement) at Cannabinoid receptor 1 was 19.2 nM; on Cannabinoid receptor 2 it was 21.3 nM.

For `COCOc1cc(C2=NCCC2)cc2c1[C@@H]1C[C@H](OCOC)CC[C@H]1C(C)(C)O2`, the Ki is 16.3 nM at Cannabinoid receptor 1 and 12.3 nM at Cannabinoid receptor 2.

For the compound `C=C1/C=C(\C)[C@@H](C)[C@@H](O)CC(=O)[C@@H](C)CC(=O)C[C@H]2CC[C@@H](O2)[C@@H](/C=C/C=C(\C)[C@@H](O)C(=C)CCCC)OC(=O)C[C@@H]2O[C@H](C[C@H]2C)[C@H](O)[C@@H]1O`, the concentration for half-maximal inhibition (IC50) amounted to 0.0046 µg/mL (≈ 0.00643 µM) in the assay with KB and 0.0058 µg/mL (≈ 0.00811 µM) in the assay on L1210.

Take `CC(C)=CCC/C(C)=C\[C@H]1C(=O)C(C)=C[C@@H]1O`: the IC50 in assay [2] was determined as 2 µg/mL (≈ 8.53 µM); in assay [3], 5.7 µg/mL (≈ 24.3 µM).
